Measurements published in US12491170B2, “Stable treprostinil prodrugs” (United Therapeutics Corporation, priority 2020, dated 2025).

Experiments:
[1] = biological target: prostaglandin E2 (PGE2) receptor 2 (EP2) (Homo sapiens, UniProt P43116); assay: EP2 receptor cAMP agonist assay (HEK293T cells); format: cell-based; settings: for EP2 Relative to Tre: Table 22, relative to treprostinil EC50 values, * partial agonists or ambiguous dose-response curves
Experimental: (§1) Cyclic AMP assay kit: Multiscreen™ TR-FRET cAMP 1.0 No Wash Assay Kit (Multispan, Inc.)
(§2) Cells were thawed from frozen cells and resuspended in assay buffer at desired concentrations. cAMP or Calcium assays were performed according to the manufacturer's protocol using Multiscreen™ TR-FRET cAMP 1.0 No Wash Assay Kit or Multiscreen™ Calcium 1.0 No Wash Kit.
(§3) Gas Cyclic AMP (cAMP) Assay: In agonist mode testing, cells were seeded in a 384-well plate at an appropriate density and then were treated with compounds and incubated at 37° C. for 20 minutes. The reaction was terminated by […] trFluor™ Eu-labeled cAMP and trFluor™ 650-labeled anti-cAMP antibody in lysis buffer. […] All testing wells contained 0.1% DMSO in the final concentrations.
(§4) Data in graphs are represented in Mean±SD. Dose-dependent responses were fitted with sigmoidal dose-response curves allowing variable slopes using GraphPad Prism version 6 (Graphpad Prism).
(§5) These studies used cell lines overexpressing either human IP, EP2 or DP1, or EP1 receptors, and following incubation with varying concentrations of compounds, cAMP levels were measured using Fluorescence Resonance Energy Transfer (FRET).

[2] = Stability in human subcutaneous skin homogenate
[3] = Hydrolysis of prodrugs to treprostinil at pH 6, 7, 8 and 40 C; format: physicochemical
Text: Tables 24, 25 and 26 present data for hydrolysis of selected treprostinil prodrugs at pH 6, 7 and 8, respectively, and 40 C.

[4] = biological target: T1, prostaglandin D2 (PGD2) receptor 1 (DP1) (Homo sapiens, UniProt Q13258); assay: DP1 receptor cAMP agonist assay (HEK293T cells); format: cell-based; settings: for DP1 Relative to Tre: relative to treprostinil EC50 values, * partial agonists or ambiguous dose-response curves
T1 sequence (Q13258 1-359): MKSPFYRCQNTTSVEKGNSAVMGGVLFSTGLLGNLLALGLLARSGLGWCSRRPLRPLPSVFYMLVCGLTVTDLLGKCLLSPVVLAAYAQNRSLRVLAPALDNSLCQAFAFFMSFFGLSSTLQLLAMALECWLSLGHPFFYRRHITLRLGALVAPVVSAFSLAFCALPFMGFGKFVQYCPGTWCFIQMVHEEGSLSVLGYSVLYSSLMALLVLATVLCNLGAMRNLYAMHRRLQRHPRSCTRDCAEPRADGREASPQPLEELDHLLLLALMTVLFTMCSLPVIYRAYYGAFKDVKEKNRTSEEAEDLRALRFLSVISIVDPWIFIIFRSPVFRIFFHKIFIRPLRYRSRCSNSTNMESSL
Experimental: as §1, §2, §3, §4, §5

[5] = biological target: prostaglandin I2 (PGI2) receptor (IP) (Homo sapiens, UniProt P43119); assay: IP receptor cAMP agonist assay (CHO-K1 cells); format: cell-based; settings: relative to treprostinil EC50 values, * partial agonists or ambiguous dose-response curves
prostaglandin I2 (PGI2) receptor (IP), sequence (P43119 whole entry): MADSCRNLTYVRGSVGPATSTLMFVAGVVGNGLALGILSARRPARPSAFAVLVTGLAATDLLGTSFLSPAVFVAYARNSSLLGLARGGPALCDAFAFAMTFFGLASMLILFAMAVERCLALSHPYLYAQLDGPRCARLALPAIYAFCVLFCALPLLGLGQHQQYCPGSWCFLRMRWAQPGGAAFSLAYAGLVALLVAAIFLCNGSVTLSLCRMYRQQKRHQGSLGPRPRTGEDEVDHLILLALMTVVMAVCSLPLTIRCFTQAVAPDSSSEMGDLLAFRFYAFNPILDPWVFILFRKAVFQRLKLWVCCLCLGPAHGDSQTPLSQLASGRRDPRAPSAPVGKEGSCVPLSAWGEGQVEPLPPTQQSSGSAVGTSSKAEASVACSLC
Experimental: as §1, §2, §3, §4, §5

[6] = biological target: T2, PGE2 receptor 1 (EP1) (Homo sapiens, UniProt P34995); assay: EP1 receptor calcium agonist assay (HEK293T cells); format: cell-based; settings: Table 22; relative to treprostinil EC50 values; * partial agonists or ambiguous dose-response curves
T2 sequence (P34995 1-402): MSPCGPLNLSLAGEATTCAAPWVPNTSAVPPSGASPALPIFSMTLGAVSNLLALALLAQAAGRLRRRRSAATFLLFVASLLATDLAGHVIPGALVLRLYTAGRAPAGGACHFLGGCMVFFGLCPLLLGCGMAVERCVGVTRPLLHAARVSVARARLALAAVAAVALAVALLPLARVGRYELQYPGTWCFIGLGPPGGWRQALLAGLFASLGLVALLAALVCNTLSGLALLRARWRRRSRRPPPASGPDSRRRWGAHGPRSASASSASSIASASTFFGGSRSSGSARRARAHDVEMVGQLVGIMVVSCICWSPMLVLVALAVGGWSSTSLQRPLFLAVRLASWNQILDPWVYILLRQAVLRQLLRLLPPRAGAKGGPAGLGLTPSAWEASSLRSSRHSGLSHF
Experimental: Calcium assay kit: Multiscreen™ Calcium 1.0 No Wash Kit (Multispan, Inc., Cat #MSCA01-1)
• EP1 Calcium and DP1 cAMP Assays: HBSS plus 20 mM HEPES • EP2 and IP1 cAMP Assays: 1 mM IBMX in HBSS plus 20 mM HEPES Instruments: FlexStation III (Molecular Devices) and FLIPR 384 (Molecular Devices)
as §2
Calcium Assay: Cells were seeded in a 384-well plate at an appropriate density. The calcium assay was conducted according to the manufacturer's protocols (Multiscreen Calcium 1.0 No Wash Assay Kit). The calcium dye loading buffer was added to the cells and incubated for 1 hour at 37° C. For agonist mode, cells were injected with Iloprost control agonist or test compound by FLIPR and calcium mobilization was monitored for 180 seconds with compound injected into the wells at the 19th second. Fluorescent emissions were read at 525 nm with excitation at 490 nm in a FLIPR 384 instrument (Molecular Devices).
Calcium Assay: Calcium assay results are expressed as “RFU” as defined in figure below. Data are represented in Mean±SEM. Dose-response curves were fitted using “Sigmoidal dose-response (variable slope)” function in GraphPad Prism 6. EC50 values were calculated based on the fitted curves.
Prostaglandin receptor activity assessments with treprostinil and treprostinil analogues have been conducted, and a historical, positive control agonist for these receptors, iloprost (for IP, EP2 and EP1) or PGD2 (for DP1), was also included. These studies used cell lines overexpressing either human IP, EP2 or DP1, or EP1 receptors, and following incubation with varying concentrations of compounds, cAMP levels were measured using Fluorescence Resonance Energy Transfer (FRET). The 665/620 (acceptor/donor emission signals) ratio is inversely proportional to the concentration of cAMP.

[7] = regardless of the route of administration; cited from earlier work
[8] = oral delivery, animal studies; cited from earlier work

prostaglandin E2 (PGE2) receptor 2 (EP2), sequence (P43116 whole entry): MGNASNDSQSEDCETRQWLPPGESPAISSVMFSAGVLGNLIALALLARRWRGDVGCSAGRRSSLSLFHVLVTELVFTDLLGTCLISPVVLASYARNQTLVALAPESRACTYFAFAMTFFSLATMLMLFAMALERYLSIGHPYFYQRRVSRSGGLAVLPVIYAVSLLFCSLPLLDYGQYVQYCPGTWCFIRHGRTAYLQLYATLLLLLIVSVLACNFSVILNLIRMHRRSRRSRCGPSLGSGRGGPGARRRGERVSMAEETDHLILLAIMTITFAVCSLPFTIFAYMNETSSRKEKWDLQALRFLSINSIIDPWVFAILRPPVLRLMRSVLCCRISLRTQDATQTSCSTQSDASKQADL

Molecule | Hydrolysis to treprostinil, % Area, t = 1 week ([3]; pH 6, 40 C.) | Hydrolysis to treprostinil, % Area, t = 2 weeks ([3]; pH 6, 40 C.) | Hydrolysis to treprostinil, % Area, t = 3 weeks ([3]; pH 6, 40 C.) | Hydrolysis to treprostinil, % Area, t = 1 week ([3]; pH 7, 40 C.) | Hydrolysis to treprostinil, % Area, t = 2 weeks ([3]; pH 7, 40 C.) | Hydrolysis to treprostinil, % Area, t = 3 weeks ([3]; pH 7, 40 C.) | Hydrolysis to treprostinil, % Area, t = 1 week ([3]; pH 8, 40 C.) | Hydrolysis to treprostinil, % Area, t = 2 weeks ([3]; pH 8, 40 C.) | Hydrolysis to treprostinil, % Area, t = 3 weeks ([3]; pH 8, 40 C.) | DP1 Relative to Tre ([4]; Table 22) | IP Relative to Tre ([5]; Table 22) | EP2 Relative to Tre [1] | EP1 Relative to Tre [6] | also measured
treprostinil diphosphate [Prodrug LXXIII] | 0.00 % Area | 0.00 % Area | 0.00 % Area | 0.00 % Area | 0.00 % Area | 0.00 % Area | 0.00 % Area | 0.00 % Area | 0.00 % Area | 217x | 208x |  |  | Activity at the EP2 receptor compared to treprostinil ([1]; summary of findings): inactive; AUC ([2]; human): 2.744 µmol·min/L; Mono AUC (treprostinil formed) ([2]; human): 2.744 µmol·min/L; Percent Remaining (Avg, n = 3) 0 min ([2]; pooled human skin homogenate, 1 μM, 37° C., 0 min): 100%; Percent Remaining (Avg, n = 3) 30 min ([2]; pooled human skin homogenate, 1 μM, 37° C., 30 min): 86.2%; Percent Remaining (Avg, n = 3) 60 min ([2]; pooled human skin homogenate, 1 μM, 37° C., 60 min): 71.2%; Percent Remaining (Avg, n = 3) 120 min ([2]; pooled human skin homogenate, 1 μM, 37° C., 120 min): 64.0%; DP1 Relative to Tre ([4]; Table 23): 217x; Activity at the DP1 receptor compared to treprostinil ([4]; summary of findings): several hundred-fold less active; IP Relative to Tre ([5]; Table 23): 208x
CCCCCC(CCC1C(O)CC2Cc3c(cccc3OCC(=O)O)CC21)OC(=O)COc1ccc(OC(F)(F)F)cc1 (stereo not drawn) [Prodrug LXIV] | 0.72 % Area | 1.2 % Area | 1.5 % Area | 0.46 % Area | 0.93 % Area | 1.2 % Area | 1.8 % Area | 3.9 % Area | 5.8 % Area | 38x | 162x* | 24x* | 0.03x* | 
CCCCCC(CCC1C(O)CC2Cc3c(cccc3OCC(=O)O)CC21)OC(=O)COc1ccccc1 (stereo not drawn) [Prodrug LXV] | 0.13 % Area | 0.29 % Area | 0.39 % Area | 0.96 % Area | 1.9 % Area | 2.7 % Area | 6.0 % Area | 11.4 % Area | 16.9 % Area | 89x | 599x | 187x* | 64x* | 
CCCCC[C@H](O)CC[C@@H]1[C@H]2Cc3cccc(OCC(=O)O)c3C[C@H]2C[C@H]1O [Treprostinil] |  |  |  |  |  |  |  |  |  |  |  |  |  | half-life once absorbed [7]: about 1 hour; first-pass effect [8]: approximately 60%
CCCCCC(CCC1C(O)CC2Cc3c(cccc3OCC(=O)O)CC21)OCOC(=O)C(C)(C)C (stereo not drawn) [Prodrug LII] |  |  |  |  |  |  |  |  |  | 73x | 527x | 26x | 133x* | 
CCCCC[C@H](O)CC[C@@H]1[C@H]2Cc3cccc(OCC(=O)OCC)c3C[C@H]2C[C@H]1O [Treprostinil ethyl ester, reference compound] |  |  |  |  |  |  |  |  |  | 18x | 535x | 11x | 30x | 
CCCCCC(CCC1C(O)CC2Cc3c(cccc3OCC(=O)O)CC21)OC(=O)C(C)C (stereo not drawn) [Prodrug LXVII] | 0.00 % Area | 0.00 % Area | 0.00 % Area | 0.00 % Area | 0.00 % Area | 0.00 % Area | 0.00 % Area | 0.23 % Area | 0.27 % Area | 184x | 148x | 34x* |  | 
